Measured values reported in patent US12435074B2, “Physics-driven discovery of novel small therapeutic compounds for use as a BCL-2 inhibitor” (BAHCESEHIR UNIVERSITESI, priority 2020, dated 2025).

System: HCT-116 colon cancer cell line
Assay: MTT cell proliferation assay on HCT-116 cells
Assay type: cell-based
Experimental: For cell culture experiments various cancer cell lines, HCT-116 colon cancer, U87-MG glial tumor, MCF7 breast cancer cell lines were used. Cells were seeded with high glucose DMEM medium (Biosera) supplemented with 10% FBS (Gibco) and 1X penicillin/streptomycin (Multicell). Twenty-four hours prior to molecule treatment, 10,000 cells were seeded into each well of 24-well cell culture plates. Molecules were used by preparing 4 mM stock solution in DMSO (Amresco). For molecule treatment, molecule stock solutions were diluted in DMEM with 10% FBS and added onto cells in each corresponding well. Final concentration of vehicle DMSO was 2% at maximum. […] We calculated the number of cells to be seeded to make sure that none of the cells reaches more than 60% confluency during the treatment period, as higher plate confluency levels would slow down cell proliferation independently from the molecule treatment.
Values of half-maximal inhibitory concentration were (IC50) determined by MTT cell proliferation assays. […] 570 nm absorbance values were recorded and IC50 values were calculated by dose response—inhibition curves and nonlinear regression analysis on GraphPad Prism 8 software. […] Following the initial incubation day, molecules were added and after incubation with MTT at 37° C. for 4 hours, formazan was solubilized with DMSO (Sigma-Aldrich, St. Louis, USA) and absorbance was measured at 570 nm. […]

IC50 (Homo sapiens, 72 h, single treatment, three days results, 570 nm absorbance, read-out: IC50 (half-maximal inhibitory concentration)): 130 µM
Structure (SMILES): CCC(C)(C)C1CCc2c(sc(NC(=O)c3cc(-c4ccc(Cl)s4)nc4ccccc34)c2C(N)=O)C1 (centres unmarked) [compound of formula I]
proliferation of HCT-116 cells compared to vehicle group (FIG. 1, versus vehicle (max 2% DMSO)): reduced proliferation and apoptotic cell structures
